This is an account of results in article PMC6223132 (Journal of controlled release : official journal of the …, 2018).

Converted amounts (≈) assume the structure as drawn.

In data set [1] the test system is aerosolized F. novicida U112. The class given is in vivo, C57Bl/6 mice. To be noted: n=8.
The next data set concerns Francisella tularensis. To be noted: cited from earlier work.
The nature of data set [2]: In vivo pharmacokinetics and biodistribution of drugamer-released ciprofloxacin. To be noted: single dose 20 mg/kg intratracheal, over 2 h.

The term MIC denotes the lowest concentration found to suppress growth. In data set [1], `O=C(O)c1cn(C2CC2)c2cc(N3CCNCC3)c(F)cc2c1=O` [free ciprofloxacin, ciprofloxacin] gave a survival rate of 0%. The minimum inhibitory concentration (MIC) in the data set with Francisella tularensis is 0.03 µg/mL (≈ 0.0905 µM). For the same molecule, in data set [2], the “elimination from the lungs” value is listed as “rapid elimination”.
